Laboratory results as given in patent US20200001104A1, “SCALABLE MAGNETOMECHANICAL SCHEMES AND DEVICES FOR REMOTE CONTROL OF MECHANOSENSITIVE CELLS” (Massachusetts Institute of Technology, priority 2018, published 2020).
Entries after “also recorded” stand apart in the source; their conditions may differ. Like-named read-outs stand apart in the source and are kept apart here.

Test system: dorsal root ganglion (DRG) explant cultures
Experiment: Magnetomechanical stimulation in the presence of channel blockers, calcium imaging
Format: cell-based, rat
[1] = blocker at 100 μM, MNDs plus MF
[2] = cells incubated with blocker, all doses, one-way ANOVA, n=6

Compound: ruthenium red [RuR]
- Ca2+ response (ΔF/F0) to magnetomechanical stimulation (blocker at 10 μM, MNDs plus MF): larger ΔF/F0 changes; also recorded: increases
- Ca2+ response to magnetomechanical stimulation [1]: returns to baseline levels
- number of responders to magnetomechanical stimulation [2]: No significant difference

Compound: CCCCCC/C=C\CCCCCCCC(=O)O [PA, palmitoleic acid]
- Ca2+ response to magnetomechanical stimulation (blocker at 30-300 μM, MNDs plus MF): failed to block; also recorded: do not affect
- number of responders to magnetomechanical stimulation [2]: No significant difference

Compound: NC1=N[C@H](O)[C@H]2[C@H]3O[C@]4(O)O[C@@H]([C@@H](O)[C@@]2(N1)[C@@H]4O)[C@]3(O)CO [TTX, tetrodotoxin]
- Ca2+ response to magnetomechanical stimulation: failed to block; also recorded: do not affect
- number of responders to magnetomechanical stimulation: No significant difference

Compound: [Cl][Gd]([Cl])[Cl] [Gd^3+, Gadolinium(III) (Gd^3+) chloride]
- Ca2+ response to magnetomechanical stimulation [1]: enhanced response; also recorded: increases Ca^2+ influx
- Ca2+ response to magnetomechanical stimulation (blocker at 1000 μM (1 mM), MNDs plus MF): reduced response; also recorded: nearly eliminates Ca^2+ activity
- fraction of cells responding to magnetomechanical stimulation (blocker at 1 mM, one-way ANOVA and Tukey's HSD, n=6): significantly lower fraction
